In paper PMC9820430, “New Affordable Methods for Large-Scale Isolation of Major Olive Secoiridoids and Systematic Comparative Study of Their Antiproliferative/Cytotoxic Effect on Multiple Cancer Cell Lines of Different Cancer Origins” (International Journal of Molecular Sciences, 2022):

How the values were obtained:
[1] = system: three breast cancer cell lines (MDA-MB-231, SK-BR-3 and MCF-7); assay: ATP-based luminescence cell viability assay, breast panel; set-up: species or system human; settings: Homo sapiens; MDA-MB-231, SK-BR-3 and MCF-7; 72 h
Experimental: The antiproliferative/cytotoxic effects of the selected OOPs on each cell line were assessed by measuring the cellular ATP levels after 72 h treatments using an ATP-based luminescence assay. This assay, initially developed as a tumor chemosensitivity assay, has shown considerable promise as a general in vitro toxicity assay due to its high sensitivity that allows the detection of a small number of cells. Consequently, it can be applied to both cancer cell lines and primary tissue cells. […] The EC50 values were calculated by nonlinear regression (curve fit) using a sigmoidal dose–response equation (Figure 2A and Figure S2).
The calculated EC50 values ranged between 9.1–100 μΜ (Table 1). The bioactivity of the oleocanthalic acid (7), studied here for the first time for its antiproliferative/cytotoxic activity, was initially evaluated systematically in the three breast cancer cell lines using a concentration range of 10–100 μM. In all cases, the viability measured was ≥80%, predicting EC50 values > 100 μΜ. […] For this reason, oleocanthalic acid (7) was excluded from the rest of this study.
The OOPs tested in this study were first dissolved in an appropriate DMSO volume such as to prepare a final stock solution of 50 mM, which was further used to prepare various compound concentrations in DMSO-based solutions. The final DMSO concentration in the cell culture was maintained constant in all treated groups of any given experiment and never exceeded the value of 0.2% (v/v). For the treatment experiments, cells were plated in 96-well culture plates, in 100 μL of complete medium at a seeding density of 5000–10,000 cells/well—depending on cells’ size and doubling time—and were allowed to adhere overnight (~16 h). The next day, 150 μL of complete medium was added to each well and the cells were treated with various concentrations of OOPs. Each concentration was tested in triplicate and was repeated 2–3 times. To prepare the final concentration solutions, 0.5 μL of a 500× stock of each tested compound in DMSO was added directly into each well in a final volume of 250 μL culture medium and was gently mixed by pipetting. Control wells were prepared under the same experimental conditions by adding only DMSO at a final concentration of 0.2% (v/v). Compounds were not renewed during the entire period of cell exposure. All cells were cultured at 37 °C in a 5% (v/v) CO2 for 24, 48 or 72 h.
Briefly, after the treatment with OOPs, the adapted medium was removed from the dish wells and the cells were washed twice with medium without FBS. Then, the C-lysis (LT27-076) was diluted in PBS (1:2) and a volume of 50 μL was added to each well. […] Cell viability was quantified by measuring luminescence using a multi-mode microplate reader Safire^2 Tecan (software Magellan V6.00 STD.2PC WIN.20000/XP).

MCF-7 = assay: EdU incorporation cell proliferation assay, 24 h; assay type: cell-based, human; settings: for % EdU +ve ± SE (S-phase cells): 24 h treatment at EC50 concentration
Experimental: For this purpose, ten cancer cell lines (i.e., MDA-MB 231, SK-BR-3, MCF-7, A2058, SK-MEL-28, AGS, HepG-2, PANC-1, H1299 and Hela) originating from breast, melanoma, stomach, hepatic, pancreatic, lung and cervical tumors were analyzed in parallel with control samples (i.e., the same cells treated only with 0.2% (v/v) DMSO). […] Subsequently, the treated cells were allowed to incorporate 5-ethynyl-2′-deoxyuridine (EdU) into replicating DNA according to the protocol described in detail in the Experimental Section. […] In this study, after EdU incorporation, the nuclei of the entire cell population were stained with Hoechst and imaged by confocal microscopy (Experimental Section). EdU-positive nuclei, marked by green FL, as well as the total number of nuclei, marked by blue FL, were enumerated by applying the Icy image analysis algorithm on the digital images acquired by confocal microscopy.
Human cancer cells were plated onto sterile glass coverslips (10-mm diameter, 5161063, ThermoFisher Scientific, Waltham, MA, USA) in 24-well tissue culture plates, at a density 5 times the density of cells seeded in 96-well plate and at a final medium volume of 500 μL. In order to obtain homogeneous plating, 250 μL of the medium was added directly to the wells already containing coverslips. Using a tip perpendicularly, coverslips were pressed in order to ensure their attachment to the bottom of the well. The cells were then seeded by adding 250 μL of single-cell suspension drop by drop following a cross path. Immediately after seeding, the plate was shaken back and forth at least ten times to achieve homogeneous plating. The cells were allowed to adhere overnight (~16 h) at 37 °C and 5% (v/v) CO2. The next day, a volume of 500 μL fresh medium was added to each well and the treatment with OOPs was initiated by adding directly to the wells 2 μL of OOPs from the 500× stock in DMSO and immediately mixed afterward by pipetting. […] Control cells were prepared under the same experimental conditions using DMSO instead of the OOPs’ solutions in DMSO at the same final concentration (0.2% (v/v) DMSO). […]

[2] = system: MCF-7/TR (tamoxifen-resistant); set-up: method as in Mazzei et al. (2020) 27; settings: ref Mazzei et al. (2020) 27; cited from earlier work
Hela cells = settings: cited from earlier work
Caco-2 cells = settings: cited from earlier work
HaCaT cells = system: HaCaT cells; set-up: method as in PMID 27878290, PMID 35630786; settings: cited from earlier work
SK-BR-3 cells = assay: Deactivation in culture medium (direct addition vs pre-incubation), ATP assay 48 h; assay type: cell-based, human; settings: 20 and 40 μM, 15 min pre-incubation in culture medium vs direct addition
Experimental: The other OOPs tested were not affected similarly (Figure S3B). […] It was therefore decided for all the experiments presented in this manuscript and the assays performed to calculate the EC50 values to add all the OOPs tested directly to the culture medium.
Viable cell numbers were determined using the ATP-based luminescence assay after 48 h of treatment. The compound was added to the cells either directly or after incubation with the culture medium for 15 min. The results presented are from four independent experiments performed in triplicate. Bar graphs represent the mean cell count ± SE in each treatment group normalized to the control group (i.e., cells treated only with 0.2% (v/v) DMSO). * p < 0.05; ** p ≤ 0.01 (t-test) comparing the two different treatment methods.

Row | EC50 [1] [µM] | stability/deactivation in the cell culture medium (SK-BR-3 cells) | SMILES | % Inhibition ± SE of cell proliferation (MCF-7; 24 h at EC50, normalized with the control) [%] | % EdU +ve ± SE (S-phase cells) (MCF-7) [%] | EC50 [2] [µM] | EC50 (Hela cells) [µM] | EC50 (Caco-2 cells) [µM] | sensitivity of cells to treatment (HaCaT cells)
1 | 17.7 to 32.2 |  | COC(=O)C1=COC(C)[C@@H](C=O)[C@@H]1CC(=O)OCCc1ccc(O)c(O)c1 (mixture of isomers) [3a,b, oleuropein aglycone] | 19.3 ± 0.5 | 21.1 ± 2.0 | 70 |  |  | 
2 | 10.5 to 24.6 | partially deactivated | C/C=C(/C=O)[C@@H](CC=O)CC(=O)OCCc1ccc(O)cc1 [compound 1, oleocanthal] |  | 21.6 ± 4.0 |  | > 150 | > 150 | resistant
3 |  |  | C/C=C(/C=O)[C@@H](CC=O)CC(=O)OCCc1ccc(O)c(O)c1 [compound 2, oleacein] |  |  |  |  |  | resistant
